What all share (experiment): Bliss excess, mean over the matrix (fraction); higher = more synergy
In assay [1] the test system is 647-V (Bladder Carcinoma). The gist of the method:
(§1)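 Cell lines in DMEM/F12 or RPMI with 10% FBS were plated in 1536-well plates, held 24 hours at 37°C, 5% CO2, then given two-drug dose matrices for 72 hours (DMSO typically 0.2%). Viability was read by CellTiter-Glo 2.0 luminescence and scaled as inhibition from 0 (vehicle wells) to 1 (blank wells). Combination Emax is the second-highest inhibition in the matrix; Bliss excess is observed combination effect minus expected EA + EB − EA·EB, EA and EB being single-agent effects.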

A further assay relates to A172 (Glioblastoma). The gist of the method: as §1
In the next assay the test system is CS1 (Chondrosarcoma). In outline:
as §1

For the next assay, the system named is D-392MG (Glioblastoma). In outline:
as §1

The subject of assay [2] is DOK (Oral Cavity Carcinoma). The gist of the method: as §1
Assay [3] deals with ETK-1 (Biliary Tract Carcinoma). In outline:
as §1

Assay [4] has as its system GDM-1 (Acute Myeloid Leukemia). The gist of the method: as §1
Assay [5] deals with HCC-827 (Lung Adenocarcinoma). In outline:
as §1

For a further assay, the system named is HCC38 (Breast Carcinoma). In outline: as §1
The test system of assay [6] is HOP-92 (Non-Small Cell Lung Carcinoma). The gist of the method: as §1
Assay [7] relates to JHH-6 (Hepatocellular Carcinoma). In outline: as §1
Assay [8] has as its system MEG-01 (Chronic Myelogenous Leukemia). The gist of the method: as §1
For assay [9], the system named is NCI-H1688 (Small Cell Lung Carcinoma). In outline: as §1
In assay [10] the test system is PA-TU-8902 (Pancreatic Carcinoma). The gist of the method: as §1
In assay [11] the test system is RCC10RGB (Kidney Carcinoma). The gist of the method:
as §1

For assay [12], the system named is SK-LMS-1 (Other Solid Carcinomas). In outline:
as §1

Another assay deals with SK-MEL-1 (Melanoma). The gist of the method: as §1
Assay [13] relates to SLVL (B-Cell Non-Hodgkin's Lymphoma). The gist of the method: as §1
A further assay concerns Saos-2 (Osteosarcoma). In outline:
as §1

Assay [14] relates to U-118-MG (Low Grade Glioma). In outline:
as §1

Molecules are shown by their SMILES.

As to `COc1cccc(OCCCN)c1-c1cc(Nc2cnc(C#N)cn2)n[nH]1` [Prexasertib] + C[C@@H]1COCCN1C2=NC(=NC(=C2)C3(CC3)[S@](=N)(=O)C)C4=C5C=CNC5=NC=C4 [AZD6738] (first compound max 1 µM, 7x7, partner max 10 µM), the Bliss excess in assay [1] was -0.0106; with A172 (Glioblastoma), 0.0013; in the assay on CS1 (Chondrosarcoma) it was -0.0111; in the assay on D-392MG (Glioblastoma), 0.0355; in assay [2], 0.0689; in [3], -0.0028. For the same compound, the Bliss excess in [4] was -0.0333; in assay [5], -0.0234; in the assay on HCC38 (Breast Carcinoma) it was -0.0029; in assay [6], -0.0039; in assay [7], 0.0207; in assay [8], -0.0542. The Bliss excess in assay [9] was 0.0117; in assay [10], 0.0229; in assay [11], 0.0657; in [12] it was -0.029; in the assay on SK-MEL-1 (Melanoma) it was -0.015; in [13], -0.0455. In addition, the figures for the Bliss excess (in the assay on Saos-2 (Osteosarcoma); in [14]) were -0.0739 and -0.0136, respectively.

As to `COc1cccc(OCCCN)c1-c1cc(Nc2cnc(C#N)cn2)n[nH]1` [Prexasertib] + Cc1cc2ncnn2cc1Nc1ncc2c(n1)n(C1CCOCC1)c(=O)n2C [AZD7648] (first compound max 1 µM, 7x7, partner max 10 µM), the Bliss excess in assay [1] is -0.0011; in the assay on A172 (Glioblastoma), -0.0573; in the assay on CS1 (Chondrosarcoma), -0.0285; in the assay with D-392MG (Glioblastoma), -0.0254; in assay [2] it was 0.0019; in assay [3], 0.059. Moreover, the Bliss excess in assay [4] was -0.058; in assay [5], 0.0186; in the assay with HCC38 (Breast Carcinoma), -0.0592; in assay [6], 0.0218; in assay [7], 0.0194; in assay [8] it was -0.0363. Also, the Bliss excess in [9] was 0.0044; in assay [10], -0.0059; in assay [11] it was -0.075; in assay [12] it was 0.0078; in the assay on SK-MEL-1 (Melanoma), -0.0247; in [13], 0.0204. Moreover, the Bliss excess in the assay on Saos-2 (Osteosarcoma) was -0.0591; in [14], -0.0584.

With `COc1cccc(OCCCN)c1-c1cc(Nc2cnc(C#N)cn2)n[nH]1` [Prexasertib] + O=C(c1cc(Cc2n[nH]c(=O)c3ccccc23)ccc1F)N1CCN(C(=O)C2CC2)CC1 [Olaparib] (first compound max 1 µM, 7x7, partner max 10 µM), the Bliss excess in assay [1] was 0.0459; in the assay on A172 (Glioblastoma) it was -0.0474; in the assay with CS1 (Chondrosarcoma) it was -0.0635; with D-392MG (Glioblastoma), -0.0698; in assay [2] it was -0.0269; in [3], 0.0573. The Bliss excess in assay [4] is -0.0516; in [5], -0.0262; with HCC38 (Breast Carcinoma), -0.0641; in assay [6], -0.0692; in [7], 0.0128; in assay [8], -0.0981. The Bliss excess in assay [9] was -0.0135; in assay [10], -0.0783; in assay [11], -0.0784; in [12], -0.0676; with SK-MEL-1 (Melanoma) it was -0.0435; in assay [13] it was -0.0051. Further, the Bliss excess in the assay with Saos-2 (Osteosarcoma) is -0.0123; in assay [14] it was -0.0445.

On to `COc1cc2c(cc1OCCCCCOc1cc3c(cc1OC)C(=O)N1C=C(C)C[C@H]1C=N3)N=C[C@@H]1CC(C)=CN1C2=O` [SG3199] + O=C(c1cc(Cc2n[nH]c(=O)c3ccccc23)ccc1F)N1CCN(C(=O)C2CC2)CC1 [Olaparib] (first compound max 0.001 µM, 7x7, partner max 10 µM), for which the Bliss excess in [1] was -0.0289; in the assay with A172 (Glioblastoma) it was 0.0064; with CS1 (Chondrosarcoma), -0.0451; in the assay on D-392MG (Glioblastoma), -0.0623; in assay [2], -0.0368; in [3], -0.0021. In addition, the Bliss excess is -0.0311 in assay [4]; -0.0194 in assay [5]; -0.0356 in the assay with HCC38 (Breast Carcinoma); -0.0048 in assay [6]; -0.0353 in assay [7]; -0.0326 in assay [8]. Also, the Bliss excess in assay [9] is -0.0264; in assay [10], -0.0291; in assay [11], -0.052; in assay [12], -0.0375; in the assay on SK-MEL-1 (Melanoma), -0.0239; in assay [13], -0.0314. Also, the Bliss excess in the assay on Saos-2 (Osteosarcoma) was -0.0277; in assay [14] it was -0.0488.

For the compound `CCc1c2c(nc3ccc(O)cc13)-c1cc3c(c(=O)n1C2)COC(=O)[C@]3(O)CC` [SN-38] + CN(C)CCCOc1ccc(-c2ccc3ncc4c(c3c2)n(C2CCOCC2)c(=O)n4C)cn1 [AZD0156] (first compound max 0.3 µM, 7x7, partner max 1 µM), the Bliss excess in assay [1] is 0.0291; in the assay with A172 (Glioblastoma), 0.0443; in the assay on CS1 (Chondrosarcoma), -0.0016; with D-392MG (Glioblastoma) it was 0.0957; in [2], 0.0323; in [3], 0.0083. Besides, the Bliss excess in [4] is -0.0216; in [5], 0.0556; in the assay with HCC38 (Breast Carcinoma), -0.0453; in assay [6] it was 0.027; in [7] it was -0.0159; in assay [8] it was -0.0413. In addition, the Bliss excess in [9] is -0.0222; in assay [10], 0.0406; in assay [11], -0.0262; in [12], 0.0274; in the assay on SK-MEL-1 (Melanoma), -0.0583; in [13] it was 0.0191. The Bliss excess with Saos-2 (Osteosarcoma) was -0.0279; in [14], -0.0108.

For the compound `C[C@@H](c1ccc2nccn2c1)n1nnc2ncc(-c3cnn(C)c3)nc21` [Savolitinib] + CC1(C)CCC(CN2CCN(c3ccc(C(=O)NS(=O)(=O)c4ccc(NCC5CCOCC5)c([N+](=O)[O-])c4)c(Oc4cnc5[nH]ccc5c4)c3)CC2)=C(c2ccc(Cl)cc2)C1 [Venetoclax] (first compound max 1 µM, 7x7, partner max 1 µM), the Bliss excess in assay [1] is -0.057; with A172 (Glioblastoma) it was -0.0498; with CS1 (Chondrosarcoma) it was -0.0056; in the assay with D-392MG (Glioblastoma), -0.0454; in [2] it was -0.0578; in [3], -0.0777. Besides, the Bliss excess in [4] is -0.0236; in assay [5], -0.0293; with HCC38 (Breast Carcinoma), -0.0111; in assay [6], -0.0181; in assay [7], -0.0918; in assay [8], -0.0223. The Bliss excess is -0.047 in [9]; -0.11 in assay [10]; -0.0768 in assay [11]; 0.0121 in [12]; -0.0144 with SK-MEL-1 (Melanoma); -0.0904 in assay [13]. Besides, the results for the Bliss excess (with Saos-2 (Osteosarcoma); in [14]) were -0.0259 and -0.0416, respectively.

`C[C@@H](c1ccc2nccn2c1)n1nnc2ncc(-c3cnn(C)c3)nc21` [Savolitinib] + Cc1c2c(nn1C)CSCc1cc(n(C)n1)CSc1cc(c3ccccc3c1)OCCCc1c(C(=O)O)n(C)c3c-2c(Cl)ccc13 [AZD5991] (first compound max 1 µM, 7x7, partner max 1 µM): the Bliss excess in assay [1] was -0.0594; in the assay with A172 (Glioblastoma), -0.0747; with CS1 (Chondrosarcoma), -0.031; in the assay on D-392MG (Glioblastoma), -0.001; in [2] it was -0.0681; in [3] it was -0.0544. Also, the Bliss excess in assay [4] was -0.0004; in assay [5], -0.008; in the assay with HCC38 (Breast Carcinoma) it was -0.0279; in [6], -0.0338; in assay [7] it was -0.0727; in assay [8] it was -0.0308. Further, the Bliss excess in assay [9] is 0.0064; in assay [10] it was -0.0699; in assay [11], -0.0371; in [12] it was 0.0027; in the assay with SK-MEL-1 (Melanoma) it was -0.0235; in [13], -0.0946. Further, the Bliss excess in the assay with Saos-2 (Osteosarcoma) was -0.0405; in assay [14], 0.0095.

These data come from the supplement of paper PMC11061612.
